Patent US8906944B2, “Compounds as tyrosine kinase modulators” (Allergan, Inc., priority 2009, dated 2014)

Experiments:
PDGFβ [1] = target: T1, PDGFβ (Homo sapiens, UniProt P09619); test: PDGF stimulated Ca2+ signal in vitro (FLIPR); format: cell-based; parameters: host or cells: NHDF-Ad (normal human dermal fibroblasts); settings: NHDF-Ad, PDGF stimulation 10 ng/mL; Table IV, amide or urea linker; read-out: PDGFβ Cellular IC50
PDGFβ [2] = target: T1, PDGFβ; test: PDGFβ enzyme assay; format: biochemical; settings: Table IV, amide or urea linker
VEGFR1 = VEGFR1 (Homo sapiens, UniProt P17948); test: VEGFR1 enzyme assay; format: biochemical; settings: Table IV, amide or urea linker
Sequence of VEGFR1 (P17948 27-1338, species assumed): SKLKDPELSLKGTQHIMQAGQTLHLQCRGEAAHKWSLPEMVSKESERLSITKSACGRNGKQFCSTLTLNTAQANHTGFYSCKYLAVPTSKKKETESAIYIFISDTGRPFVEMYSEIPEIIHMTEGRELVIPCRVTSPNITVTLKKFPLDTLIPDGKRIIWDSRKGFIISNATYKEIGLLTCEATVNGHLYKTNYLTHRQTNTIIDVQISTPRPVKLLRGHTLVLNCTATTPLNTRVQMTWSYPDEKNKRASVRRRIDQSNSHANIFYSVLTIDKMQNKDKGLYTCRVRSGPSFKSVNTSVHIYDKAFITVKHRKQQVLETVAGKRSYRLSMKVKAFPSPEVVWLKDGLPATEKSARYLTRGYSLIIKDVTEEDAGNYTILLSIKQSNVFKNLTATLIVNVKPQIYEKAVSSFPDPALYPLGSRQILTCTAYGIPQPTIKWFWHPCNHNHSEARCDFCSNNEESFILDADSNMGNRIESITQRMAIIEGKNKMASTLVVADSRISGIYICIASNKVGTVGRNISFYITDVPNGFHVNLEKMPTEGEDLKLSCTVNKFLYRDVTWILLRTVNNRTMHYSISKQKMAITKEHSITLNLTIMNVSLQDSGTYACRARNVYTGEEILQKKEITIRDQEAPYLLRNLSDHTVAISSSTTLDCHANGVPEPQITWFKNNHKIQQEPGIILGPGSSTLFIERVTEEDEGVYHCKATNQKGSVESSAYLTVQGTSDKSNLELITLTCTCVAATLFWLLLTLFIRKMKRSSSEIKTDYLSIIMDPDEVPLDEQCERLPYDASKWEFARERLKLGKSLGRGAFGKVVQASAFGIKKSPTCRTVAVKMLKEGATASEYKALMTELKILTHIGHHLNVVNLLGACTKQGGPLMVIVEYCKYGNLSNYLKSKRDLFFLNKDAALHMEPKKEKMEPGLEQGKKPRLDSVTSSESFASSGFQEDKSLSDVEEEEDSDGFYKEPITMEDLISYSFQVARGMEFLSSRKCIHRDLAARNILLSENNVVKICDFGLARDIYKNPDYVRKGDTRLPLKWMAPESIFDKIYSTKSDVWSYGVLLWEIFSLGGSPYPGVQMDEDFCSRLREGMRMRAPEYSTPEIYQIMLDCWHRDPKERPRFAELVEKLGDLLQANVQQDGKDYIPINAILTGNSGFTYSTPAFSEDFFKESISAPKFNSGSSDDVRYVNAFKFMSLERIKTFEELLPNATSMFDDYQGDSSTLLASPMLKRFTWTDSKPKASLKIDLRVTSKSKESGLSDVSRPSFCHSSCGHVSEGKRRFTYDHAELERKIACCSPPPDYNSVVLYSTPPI

[3] = target: T2, human VEGF receptor (VEGFR-2) (Homo sapiens, UniProt P35968); test: VEGFR2 kinase assay; format: biochemical; settings: His-VEGFR-2 cytoplasmic domain, 3.6 μM ATP; Table IV, amide or urea linker; read-out: VEGFR2 Enzyme IC50
T2 construct: The cytoplasmic domain of the human VEGF receptor (VEGFR-2) was expressed; His; made in house; host or cells: insect cells (baculovirus)
T2 sequence (P35968 786-1356 limits assumed): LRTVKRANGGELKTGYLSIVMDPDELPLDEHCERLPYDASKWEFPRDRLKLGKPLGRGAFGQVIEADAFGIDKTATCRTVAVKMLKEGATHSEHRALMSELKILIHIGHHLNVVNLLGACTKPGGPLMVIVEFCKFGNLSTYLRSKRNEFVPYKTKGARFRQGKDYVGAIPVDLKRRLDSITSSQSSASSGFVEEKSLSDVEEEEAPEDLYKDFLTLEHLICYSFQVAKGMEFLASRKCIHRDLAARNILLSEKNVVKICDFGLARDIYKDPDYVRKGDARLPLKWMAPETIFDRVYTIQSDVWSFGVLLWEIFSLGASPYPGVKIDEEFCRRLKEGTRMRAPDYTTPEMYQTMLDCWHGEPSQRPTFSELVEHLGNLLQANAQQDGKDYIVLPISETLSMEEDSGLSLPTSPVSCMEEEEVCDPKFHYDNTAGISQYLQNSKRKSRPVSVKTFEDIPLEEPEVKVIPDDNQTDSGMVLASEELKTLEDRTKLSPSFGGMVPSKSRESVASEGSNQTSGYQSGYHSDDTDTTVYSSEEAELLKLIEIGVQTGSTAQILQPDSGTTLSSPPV
Procedure, shortened: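 His-tagged VEGFR-2 cytoplasmic domain from baculovirus-infected insect cells phosphorylating plate-bound poly-Glu-Tyr (4:1). IC50 from blank-subtracted optical density versus compound concentration.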

VEGFR2 = VEGFR2 (Homo sapiens, UniProt P35968); test: VEGF stimulated Ca++ signal in vitro (FLIPR)
Sequence of VEGFR2 (P35968 20-1356): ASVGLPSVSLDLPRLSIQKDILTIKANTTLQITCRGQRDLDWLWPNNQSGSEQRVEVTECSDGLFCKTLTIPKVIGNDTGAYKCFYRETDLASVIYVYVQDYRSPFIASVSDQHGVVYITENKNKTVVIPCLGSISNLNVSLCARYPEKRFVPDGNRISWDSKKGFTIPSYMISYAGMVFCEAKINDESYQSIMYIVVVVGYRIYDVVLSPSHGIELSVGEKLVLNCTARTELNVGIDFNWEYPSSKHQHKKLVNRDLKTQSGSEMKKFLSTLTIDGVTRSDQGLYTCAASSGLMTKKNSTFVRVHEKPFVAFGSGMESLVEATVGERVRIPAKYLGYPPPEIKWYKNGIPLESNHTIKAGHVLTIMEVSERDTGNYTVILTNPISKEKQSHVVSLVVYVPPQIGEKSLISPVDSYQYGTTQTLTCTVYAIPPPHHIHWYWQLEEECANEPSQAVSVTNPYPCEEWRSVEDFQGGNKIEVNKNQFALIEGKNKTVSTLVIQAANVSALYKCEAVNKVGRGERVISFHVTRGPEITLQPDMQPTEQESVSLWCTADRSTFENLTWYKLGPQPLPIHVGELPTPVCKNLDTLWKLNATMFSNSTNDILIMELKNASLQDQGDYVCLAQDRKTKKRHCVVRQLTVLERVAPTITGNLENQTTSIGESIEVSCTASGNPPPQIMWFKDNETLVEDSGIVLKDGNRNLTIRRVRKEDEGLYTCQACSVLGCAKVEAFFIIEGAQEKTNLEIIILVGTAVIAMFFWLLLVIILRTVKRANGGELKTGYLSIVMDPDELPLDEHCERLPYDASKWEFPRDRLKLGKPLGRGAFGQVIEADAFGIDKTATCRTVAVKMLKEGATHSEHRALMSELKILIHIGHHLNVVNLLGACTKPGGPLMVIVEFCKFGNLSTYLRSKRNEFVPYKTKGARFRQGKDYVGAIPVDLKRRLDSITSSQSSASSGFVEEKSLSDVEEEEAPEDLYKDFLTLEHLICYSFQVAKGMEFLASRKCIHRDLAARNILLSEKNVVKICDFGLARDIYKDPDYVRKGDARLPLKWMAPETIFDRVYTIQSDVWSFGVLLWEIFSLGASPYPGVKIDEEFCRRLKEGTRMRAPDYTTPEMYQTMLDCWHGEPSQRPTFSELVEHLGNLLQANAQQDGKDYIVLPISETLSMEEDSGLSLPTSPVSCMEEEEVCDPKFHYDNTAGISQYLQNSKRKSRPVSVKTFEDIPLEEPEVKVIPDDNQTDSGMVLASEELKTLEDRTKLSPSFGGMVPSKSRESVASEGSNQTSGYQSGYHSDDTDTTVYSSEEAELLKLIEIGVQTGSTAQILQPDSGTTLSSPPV
Description: VEGF Stimulated Ca^++Signal in Vitro
Automated FLIPR (Fluorometric Imaging Plate Reader) technology was used to screen for inhibitors of VEGF induced increases in intracellular calcium levels in fluorescent dye loaded endothelial cells. HUVEC (human umbilical vein endothelial cells) (Clonetics) were seeded in 96-well fibronectin coated black-walled plates overnight at 37 degree. C./5% CO2. […] C. Cells were washed 4 times (Original Cell Wash, Labsystems) to remove extracellular dye. […] Data were generated by determining max-min fluorescence levels for unstimulated, stimulated, and drug treated samples. IC50 values for test compounds were calculated from % inhibition of VEGF stimulated responses in the absence of inhibitor.

T1 sequence (P09619 33-1106): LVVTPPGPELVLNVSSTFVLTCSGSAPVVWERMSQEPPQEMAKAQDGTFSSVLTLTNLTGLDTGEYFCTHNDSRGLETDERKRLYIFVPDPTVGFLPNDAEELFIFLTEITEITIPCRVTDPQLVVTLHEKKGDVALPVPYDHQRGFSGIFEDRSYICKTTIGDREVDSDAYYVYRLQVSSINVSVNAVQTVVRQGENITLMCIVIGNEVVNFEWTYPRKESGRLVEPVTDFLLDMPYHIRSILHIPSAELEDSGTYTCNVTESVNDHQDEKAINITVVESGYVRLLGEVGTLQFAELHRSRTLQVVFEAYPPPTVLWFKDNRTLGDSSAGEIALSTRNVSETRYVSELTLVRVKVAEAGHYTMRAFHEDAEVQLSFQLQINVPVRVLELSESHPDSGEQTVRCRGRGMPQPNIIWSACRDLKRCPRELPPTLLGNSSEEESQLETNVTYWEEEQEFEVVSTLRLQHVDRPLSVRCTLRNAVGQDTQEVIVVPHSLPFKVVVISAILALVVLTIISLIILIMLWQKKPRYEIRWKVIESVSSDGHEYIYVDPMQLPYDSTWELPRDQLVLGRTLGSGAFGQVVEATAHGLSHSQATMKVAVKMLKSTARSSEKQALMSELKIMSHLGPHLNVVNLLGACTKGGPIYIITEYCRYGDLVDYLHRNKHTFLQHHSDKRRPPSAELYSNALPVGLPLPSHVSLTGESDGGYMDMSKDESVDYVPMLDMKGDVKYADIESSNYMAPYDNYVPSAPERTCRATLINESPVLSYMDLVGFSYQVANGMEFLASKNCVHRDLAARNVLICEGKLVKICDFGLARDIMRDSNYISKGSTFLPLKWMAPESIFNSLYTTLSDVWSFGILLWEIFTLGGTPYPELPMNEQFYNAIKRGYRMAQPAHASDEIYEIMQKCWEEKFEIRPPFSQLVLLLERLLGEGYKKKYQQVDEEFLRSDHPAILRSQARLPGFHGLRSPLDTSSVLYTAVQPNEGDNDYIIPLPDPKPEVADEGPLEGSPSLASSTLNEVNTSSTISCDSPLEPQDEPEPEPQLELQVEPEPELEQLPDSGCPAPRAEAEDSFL

Row | Structure (SMILES) | IC50 (PDGFβ [1]) | IC50 (PDGFβ [2]) | IC50 (VEGFR1) | IC50 [3] | IC50 (VEGFR2)
1 | COC(=O)CCCNC(=O)c1c[nH]c(-c2cc(Oc3ccc(NC(=O)Nc4cc(C)ccc4F)cc3)ccn2)c1 [Example 176, methyl 4-{[(5-{4-[4-({[(2-fluoro-5-methylphenyl)amino]carbonyl}amino)phenoxy]pyridin-2-yl}-1H-pyrrol-3-yl)carbonyl]amino}butanoate] | 0.078 µM | 0.038 µM |  |  | 
2 | Cc1ccc(F)c(NC(=O)Nc2ccc(Oc3ccnc(-c4cc(C(=O)NCCNC(=O)OC(C)(C)C)c[nH]4)c3)cc2F)c1 [Example 216, tert-butyl (2-{[(5-{4-[3-fluoro-4-({[(2-fluoro-5-methylphenyl)amino]carbonyl}amino)phenoxy]pyridin-2-yl}-1H-pyrrol-3-yl)carbonyl]amino}ethyl)carbamate] | 0.214 µM | 0.059 µM | 0.016 µM | 0.017 µM | 
3 | CCOC(=O)CCNC(=O)c1c[nH]c(-c2cc(Oc3ccc(NC(=O)Nc4cc(C)ccc4F)c(F)c3)ccn2)c1 [Example 231, ethyl 3-{[(5-{4-[3-fluoro-4-({[(2-fluoro-5-methylphenyl)amino]carbonyl}amino)phenoxy]pyridin-2-yl}-1H-pyrrol-3-yl)carbonyl]amino}propanoate] | 0.032 µM | 0.043 µM |  |  | 
4 | COC(=O)[C@@H]1CCCN1CCCNC(=O)c1c[nH]c(-c2cc(Oc3cc(C(=O)Nc4cc(C)ccc4F)ccc3F)ccn2)c1 [Example 243, methyl (2S)-1-{3-[({5-[4-(2-fluoro-5-{[(2-fluoro-5-methylphenyl)amino]carbonyl}phenoxy)pyridin-2-yl]-1H-pyrrol-3-yl}carbonyl)amino]propyl}pyrrolidine-2-carboxylate] |  | 0.08 µM | 0.039 µM | 0.016 µM | 0.005 µM
5 | CCNC(=O)[C@H](CCC(=O)OC)NC(=O)c1c[nH]c(-c2cc(Oc3cc(C(=O)Nc4cc(C)ccc4F)ccc3F)ccn2)c1 [Example 261, methyl 5-(ethylamino)-4-[({5-[4-(2-fluoro-5-{[(2-fluoro-5-methylphenyl)amino]carbonyl}phenoxy)pyridin-2-yl]-1H-pyrrol-3-yl}carbonyl)amino]-5-oxopentanoate] | 0.108 µM | 0.1 µM |  | 0.012 µM | 

Stronger by IC50 (PDGFβ [2]), values ahead:

Row | IC50 (PDGFβ [1]) | IC50 (PDGFβ [2]) | IC50 (VEGFR1) | IC50 [3] | IC50 (VEGFR2) | Structure (SMILES)
6 | 0.032 µM | 0.034 µM |  |  |  | COC(=O)CCNC(=O)c1c[nH]c(-c2cc(Oc3ccc(NC(=O)Nc4cc(C)ccc4F)c(F)c3)ccn2)c1 [Example 175, methyl 3-{[(5-{4-[3-fluoro-4-({[(2-fluoro-5-methylphenyl)amino]carbonyl}amino)phenoxy]pyridin-2-yl}-1H-pyrrol-3-yl)carbonyl]amino}propanoate]
7 |  | 0.027 µM | 0.019 µM | 0.01 µM | 0.004 µM | Cc1ccc(F)c(NC(=O)Nc2ccc(Oc3ccnc(-c4cc(C(=O)NN)c[nH]4)c3)cc2)c1 [Example 241, 1-(2-fluoro-5-methylphenyl)-3-[4-({2-[4-(hydrazinocarbonyl)-1H-pyrrol-2-yl]pyridin-4-yl}oxy)phenyl]urea]
8 |  | 0.027 µM | 0.016 µM | 0.011 µM | 0.01 µM | Cc1ccc(F)c(NC(=O)Nc2ccc(Oc3ccnc(-c4cc(C(=O)OCCCN5CCOCC5)c[nH]4)c3)cc2)c1 [Example 274, 3-morpholin-4-ylpropyl 5-{4-[4-({[(2-fluoro-5-methylphenyl)amino]carbonyl}amino)phenoxy]pyridin-2-yl}-1H-pyrrole-3-carboxylate]
9 |  | 0.02 µM | 0.016 µM | 0.009 µM | 0.005 µM | COC(=O)CN(CCCNC(=O)c1c[nH]c(-c2cc(Oc3ccc(NC(=O)Nc4cc(C)ccc4F)cc3)ccn2)c1)CC(=O)OC [Example 232, dimethyl 2,2′-[(3-{[(5-{4-[4-({[(2-fluoro-5-methylphenyl)amino]carbonyl}amino)phenoxy]pyridin-2-yl}-1H-pyrrol-3-yl)carbonyl]amino}propyl)imino]diacetate]
10 |  | 0.019 µM | 0.008 µM | 0.008 µM | 0.003 µM | Cc1cccc(NC(=O)Nc2ccc(Oc3ccnc(-c4cc(C(=O)NCCCO)c[nH]4)c3)cc2)c1 [Example 237]
11 |  | 0.018 µM | 0.008 µM | 0.007 µM | 0.008 µM | COC(=O)CC[C@H](NC(=O)c1c[nH]c(-c2cc(Oc3ccc(NC(=O)Nc4cc(C)ccc4F)c(F)c3)ccn2)c1)C(=O)OC [Example 270, dimethyl 2-{[(5-{4-[3-fluoro-4-({[(2-fluoro-5-methylphenyl)amino]carbonyl}amino)phenoxy]pyridin-2-yl}-1H-pyrrol-3-yl)carbonyl]amino}pentanedioate]
12 | 0.031 µM | 0.012 µM | 0.009 µM | 0.006 µM | 0.002 µM | COC(=O)CC[C@H](NC(=O)c1c[nH]c(-c2cc(Oc3ccc(NC(=O)Nc4cccc(C)c4)c(F)c3)ccn2)c1)C(=O)OC [Example 230, dimethyl 2-{[(5-{4-[3-fluoro-4-({[(3-methylphenyl)amino]carbonyl}amino)phenoxy]pyridin-2-yl}-1H-pyrrol-3-yl)carbonyl]amino}pentanedioate]
13 |  | 0.009 µM | 0.011 µM | 0.011 µM | 0.013 µM | Cc1ccc(F)c(NC(=O)Nc2ccc(Oc3ccnc(-c4cc(C(=O)OCCCN5CCOCC5)c[nH]4)c3)cc2F)c1 [Example 229, 3-morpholin-4-ylpropyl 5-{4-[3-fluoro-4-({[(2-fluoro-5-methylphenyl)amino]carbonyl}amino)phenoxy]pyridin-2-yl}-1H-pyrrole-3-carboxylate]
